Like-named read-outs stand apart in the source and are kept apart here.
Legend:
human DGKζ = human DGKζ (Homo sapiens (Human), UniProt Q13574); assay: biochemical; format: biochemical
Human DGKα(9-727) = Human DGKα(9-727) (Homo sapiens (Human), UniProt P23743); assay: biochemical; conditions: read-out: DGKα
DGKα = DGKα (Homo sapiens (Human), UniProt P23743); assay: biochemical; format: biochemical
[1] = test system: Human venous whole blood (IFN-γ); assay: Human whole blood IFN-γ assay; format: cell-based
Method: Assay 10: Human Whole Blood IFN-γ Assay
Human venous whole blood (22.5 μL per well), obtained from healthy donors, was pre-treated with compounds for one hour at 37° C. in a humidified 95% air/5% CO2 incubator. The blood was stimulated with 2.5 μL anti-human CD3 and anti-CD28 mAb at a final concentration of 1 μg/mL each for 24 hours at 37° C. IFN-γ in the supernatants was measured using AlphLISA kit (Cat #AL217).

[2] = test system: human venous whole blood, CD8 positive population (pERK); assay: DGK human whole blood pERK assay; format: cell-based; conditions: read-out: DGK HWB pERK IC50
In short: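 Heparinized whole blood from healthy donors preincubated with compound 1 hour at 37° C. Stimulation used anti-CD3 at 1 μg/mL final plus cross-linking goat anti-mouse IgG for 15 minutes. Flow cytometry scored percentage pERK-positive cells among CD8-positive cells.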

[3] = Table A, liposome (LIPGLO) assay, read-out: DGKζ
[4] = liposome (LIPGLO) assay, read-out: DGKα LIPGLO IC50
[5] = liposome (LIPGLO) assay, read-out: DGKζ LIPGLO IC50
[6] = read-out: INFg Whole Blood Normalized Agonist EC50, human whole blood, anti-CD3 plus anti-CD28, 24 hours
[7] = human whole blood, anti-CD3 plus anti-CD28, 24 hours, read-out: INFg Whole Blood Normalized Agonist EC50
[8] = human whole blood, CD8 positive population
[9] = Table A, liposome (LIPGLO) assay
[10] = Homo sapiens, 24 h, human whole blood, anti-CD3 plus anti-CD28, 24 hours, read-out: INFg Whole Blood Normalized Agonist EC50
[11] = Table A, liposome (LIPGLO) assay, read-out: DGKα
[12] = human whole blood IFN-γ, read-out: INFg Whole Blood

Chain of human DGKζ (Q13574 whole entry, looked up): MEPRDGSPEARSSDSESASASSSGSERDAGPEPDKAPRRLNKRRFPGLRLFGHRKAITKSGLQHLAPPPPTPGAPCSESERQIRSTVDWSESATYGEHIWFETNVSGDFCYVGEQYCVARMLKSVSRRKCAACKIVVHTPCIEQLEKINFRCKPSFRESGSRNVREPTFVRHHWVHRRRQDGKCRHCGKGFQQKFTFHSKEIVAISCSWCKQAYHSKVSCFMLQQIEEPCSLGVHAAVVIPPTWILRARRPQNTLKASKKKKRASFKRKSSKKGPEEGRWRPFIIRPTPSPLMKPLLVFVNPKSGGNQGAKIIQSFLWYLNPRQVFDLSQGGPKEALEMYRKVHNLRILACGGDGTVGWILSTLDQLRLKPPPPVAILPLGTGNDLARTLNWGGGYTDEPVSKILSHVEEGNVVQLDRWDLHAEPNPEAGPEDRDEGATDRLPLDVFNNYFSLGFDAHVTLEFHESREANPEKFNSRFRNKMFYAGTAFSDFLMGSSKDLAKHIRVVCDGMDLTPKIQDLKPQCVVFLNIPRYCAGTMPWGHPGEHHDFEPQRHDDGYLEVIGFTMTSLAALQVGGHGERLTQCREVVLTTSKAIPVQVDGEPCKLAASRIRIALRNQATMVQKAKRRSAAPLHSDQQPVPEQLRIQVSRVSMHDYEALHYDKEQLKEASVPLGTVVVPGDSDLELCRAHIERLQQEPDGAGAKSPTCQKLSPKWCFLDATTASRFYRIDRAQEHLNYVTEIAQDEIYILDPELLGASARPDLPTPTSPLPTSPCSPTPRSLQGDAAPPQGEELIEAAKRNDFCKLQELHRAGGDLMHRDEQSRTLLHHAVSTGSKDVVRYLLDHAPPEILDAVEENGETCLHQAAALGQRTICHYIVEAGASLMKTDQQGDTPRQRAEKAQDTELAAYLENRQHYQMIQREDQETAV
Chain of Human DGKα(9-727) (P23743 whole entry, looked up): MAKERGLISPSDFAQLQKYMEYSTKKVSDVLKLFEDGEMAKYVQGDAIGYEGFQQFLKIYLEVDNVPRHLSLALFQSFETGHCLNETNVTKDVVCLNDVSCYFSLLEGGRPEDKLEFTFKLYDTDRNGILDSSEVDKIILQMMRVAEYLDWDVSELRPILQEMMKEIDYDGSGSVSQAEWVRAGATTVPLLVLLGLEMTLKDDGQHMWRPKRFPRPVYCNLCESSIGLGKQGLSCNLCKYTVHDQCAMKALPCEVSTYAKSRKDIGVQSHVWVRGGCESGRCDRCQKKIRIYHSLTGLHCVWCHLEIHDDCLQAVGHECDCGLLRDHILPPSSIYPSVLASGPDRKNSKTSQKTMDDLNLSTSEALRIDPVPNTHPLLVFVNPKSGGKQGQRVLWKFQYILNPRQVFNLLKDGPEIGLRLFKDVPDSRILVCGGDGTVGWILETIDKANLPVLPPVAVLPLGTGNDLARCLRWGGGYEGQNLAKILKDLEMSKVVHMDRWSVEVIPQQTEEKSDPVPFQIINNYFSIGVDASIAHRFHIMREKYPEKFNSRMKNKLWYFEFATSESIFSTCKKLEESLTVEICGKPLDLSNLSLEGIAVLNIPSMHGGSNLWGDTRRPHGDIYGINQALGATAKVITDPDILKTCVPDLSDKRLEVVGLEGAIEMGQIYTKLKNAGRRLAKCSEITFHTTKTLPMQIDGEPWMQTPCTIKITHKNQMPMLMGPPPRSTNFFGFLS
Chain of DGKα (P23743 whole entry, looked up): as above

SMILES	IC50 (human DGKζ; [3]) [nM]	IC50 (DGKα; [4]) [nM]	IC50 (human DGKζ; [5]) [nM]	IC50 [2, 8] [nM]	further results
Cn1c(=O)cc(N2CC[C@H](Oc3cccc(C(F)(F)F)c3)[C@@H](O)C2)c2nc(C#N)ccc21 (racemic) [Example 260, (±)-trans-8-(3-hydroxy-4-(3-(trifluoromethyl)phenoxy)piperidin-1-yl)-5-methyl-6-oxo-5,6-dihydro-1,5-naphthyridine-2-carbonitrile]	140000				IC50 (Human DGKα(9-727)): 1900 nM
CC[C@@H]1CN(c2cc(=O)n(C)c3ccc(C#N)nc23)CC[C@H]1Oc1cccc(C(C)C)c1 (single isomer, unassigned) [Example 139]		100	1700		EC50 [1, 6]: 1500 nM; IC50 ([2]; Homo sapiens, CD8 positive): 5300 nM
CCC(C)(C)c1ccc(O[C@H]2CCN(c3cc(=O)n(C)c4ccc(C#N)nc34)C[C@H]2C)cc1 (single isomer, unassigned) [Example 170]		370	1100	540	EC50 [1, 7]: 860 nM
CC(C)c1ccc(O[C@H]2CCN(c3cc(=O)n(C)c4ccc(C#N)nc34)C[C@H]2C)cc1 (single isomer, unassigned) [Example 178]		62	530	2300	EC50 [1, 7]: 4600 nM
CO[C@@H]1CN(c2cc(=O)n(C)c3ccc(C#N)nc23)CC[C@H]1Oc1cccc(C(F)(F)F)c1 (single isomer, unassigned) [Example 262, (±)-trans-8-(3-methoxy-4-(3-(trifluoromethyl)phenoxy)piperidin-1-yl)-5-methyl-6-oxo-5,6-dihydro-1,5-naphthyridine-2-carbonitrile]	15000				IC50 (Human DGKα(9-727); [9]): 3700 nM
CC(C)Oc1ccc(O[C@H]2CCN(c3cc(=O)n(C)c4ccc(C#N)nc34)C[C@@H]2O)nc1 (single isomer, unassigned) [Example 268, (±)-trans-8-(3-hydroxy-4-((5-isopropoxypyridin-2-yl)oxy)piperidin-1-yl)-5-methyl-6-oxo-5,6-dihydro-1,5-naphthyridine-2-carbonitrile]	17000				IC50 (Human DGKα(9-727); [9]): 1300 nM
CO[C@H]1CN(c2cc(=O)n(C)c3ccc(C#N)nc23)CC[C@@H]1Oc1ccc(OC(C)C)cn1 (single isomer, unassigned) [Example 270, (±)-trans-8-(4-((5-isopropoxypyridin-2-yl)oxy)-3-methoxypiperidin-1-yl)-5-methyl-6-oxo-5,6-dihydro-1,5-naphthyridine-2-carbonitrile]	12000				IC50 (Human DGKα(9-727); [9]): 2400 nM
CO[C@@H]1CN(c2nc(=O)n(C)c3ccc(C#N)nc23)CC[C@H]1Oc1cccc(C(F)(F)F)c1 (single isomer, unassigned) [Example 276]	2000				IC50 (Human DGKα(9-727); [9]): 1000 nM
CO[C@@H]1CN(c2nc(=O)n(C)c3ccc(C#N)nc23)CC[C@H]1Oc1cccc(C(F)(F)F)c1 (single isomer, unassigned) [Example 277]	3900				IC50 (Human DGKα(9-727); [9]): 4900 nM
CC1CN(c2cc(=O)n(C)c3ccc(C#N)nc23)CCC1N(C)C(=O)c1ccc(F)cc1 (single isomer, unassigned) [Example 287, N-(1-(6-Cyano-1-methyl-2-oxo-1,2-dihydro-1,5-naphthyridin-4-yl)-3-methylpiperidin-4-yl)-4-fluoro-N-methylbenzamide]	7400				IC50 (Human DGKα(9-727)): 3200 nM
CC(C)Oc1ccc(OC2CCN(c3cc(=O)n(C)c4ccc(C#N)nc34)CC2)nc1 [Example 66, 8-(4-((5-isopropoxypyridin-2-yl)oxy)piperidin-1-yl)-5-methyl-6-oxo-5,6-dihydro-1,5-naphthyridine-2-carbonitrile]		1200	4000	2700	EC50 [1, 10]: 820 nM
Cc1nccc(OC2CCN(c3cc(=O)n(C)c4ccc(C#N)nc34)CC2)n1 [Example 72, 5-methyl-8-(4-((2-methylpyrimidin-4-yl)oxy)piperidin-1-yl)-6-oxo-5,6-dihydro-1,5-naphthyridine-2-carbonitrile]		4200	39000	20000	EC50 [1, 10]: 20000 nM
Cn1c(=O)cc(N2CCC(Oc3ccnc(C(F)(F)F)n3)CC2)c2nc(C#N)ccc21 [Example 76, 5-methyl-6-oxo-8-(4-((2-(trifluoromethyl)pyrimidin-4-yl)oxy)piperidin-1-yl)-5,6-dihydro-1,5-naphthyridine-2-carbonitrile]		11000	34000	20000	EC50 [1, 10]: 20000 nM
Cc1cc(OC2CCN(c3cc(=O)n(C)c4ccc(C#N)nc34)CC2)nc(C(C)C)n1 [Example 78, 8-(4-((2-isopropyl-6-methylpyrimidin-4-yl)oxy)piperidin-1-yl)-5-methyl-6-oxo-5,6-dihydro-1,5-naphthyridine-2-carbonitrile]		810	16000	20000	
CC(C)c1ccc(O[C@@H]2CCN(c3cc(=O)n(C)c4ccc(C#N)nc34)C[C@H]2C)cc1 [Example 94, 8-((3R,4R)-4-(4-isopropylphenoxy)-3-methylpiperidin-1-yl)-5-methyl-6-oxo-5,6-dihydro-1,5-naphthyridine-2-carbonitrile]		80	6100	3900	EC50 [1, 10]: 1100 nM
CC[C@@H]1CN(c2cc(=O)n(C)c3ccc(C#N)nc23)CC[C@@H]1Oc1cccc(C(C)(C)C)c1 [Example 165, 8-((3R,4S)-4-(3-(tert-butyl)phenoxy)-3-ethylpiperidin-1-yl)-5-methyl-6-oxo-5,6-dihydro-1,5-naphthyridine-2-carbonitrile]		96	1200		EC50 [1, 6]: 840 nM
CC[C@@H]1CN(c2cc(=O)n(C)c3ccc(C#N)nc23)CC[C@@H]1Oc1cccc(C(C)(C)C)c1 [Example 166, 8-((3R,4S)-4-(3-(tert-butyl)phenoxy)-3-ethylpiperidin-1-yl)-5-methyl-6-oxo-5,6-dihydro-1,5-naphthyridine-2-carbonitrile]		46	1600		EC50 [1, 6]: 790 nM
CC[C@@H]1CN(c2cc(=O)n(C)c3ccc(C#N)nc23)CC[C@@H]1Oc1cccc(C(C)(C)C)c1 [Example 167, 8-((3R,4S)-4-(3-(tert-butyl)phenoxy)-3-ethylpiperidin-1-yl)-5-methyl-6-oxo-5,6-dihydro-1,5-naphthyridine-2-carbonitrile]		120	1000		EC50 [1, 6]: 1600 nM; IC50 ([2]; Homo sapiens, CD8 positive): 2000 nM
CC[C@@H]1CN(c2cc(=O)n(C)c3ccc(C#N)nc23)CC[C@@H]1Oc1cccc(C(F)(F)F)c1 [Example 168]		1000	890	3700	EC50 [1, 7]: 1600 nM
CCC(C)(C)c1ccc(O[C@H]2CCN(c3cc(=O)n(C)c4ccc(C#N)nc34)C[C@H]2C)cc1 [Example 169, 5-methyl-8-((3R,4S)-3-methyl-4-(4-(tert-pentyl)phenoxy)piperidin-1-yl)-6-oxo-5,6-dihydro-1,5-naphthyridine-2-carbonitrile]					IC50 (DGKα; read-out: DGKα LIPGLO IC50): 600 nM; IC50 (human DGKζ; read-out: DGKζ LIPGLO IC50): 1400 nM; EC50 [1, 10]: 1700 nM
CC(C)c1ccc(O[C@H]2CCN(c3cc(=O)n(C)c4ccc(C#N)nc34)C[C@H]2C)cc1 [Example 176, 8-((3R,4S)-4-(4-isopropylphenoxy)-3-methylpiperidin-1-yl)-5-methyl-6-oxo-5,6-dihydro-1,5-naphthyridine-2-carbonitrile]		41	1300		EC50 [1, 10]: 2300 nM
C[C@@H]1CN(c2cc(=O)n(C)c3ccc(C#N)nc23)CC[C@@H]1Oc1cccc(C2CC2)c1 [Example 179, 8-((3R,4S)-4-(3-cyclopropylphenoxy)-3-methylpiperidin-1-yl)-5-methyl-6-oxo-5,6-dihydro-1,5-naphthyridine-2-carbonitrile]		69	1200		EC50 [1, 10]: 2400 nM
CC(C)c1ccc(O[C@H]2CCN(c3cc(=O)n(C)c4ccc(C#N)nc34)C[C@H]2C)cc1 [Example 182, 8-((3R,4S)-4-(4-isopropylphenoxy)-3-methylpiperidin-1-yl)-5-methyl-6-oxo-5,6-dihydro-1,5-naphthyridine-2-carbonitrile]		1100	1800		EC50 [1, 7]: 2800 nM
C[C@@H]1CN(c2c(C#N)c(=O)n(C)c3ccc(C#N)nc23)CC[C@@H]1Oc1ccc(C(F)(F)F)cc1 [Example 190, 5-methyl-8-((3R,4S)-3-methyl-4-(4-(trifluoromethyl)phenoxy)piperidin-1-yl)-6-oxo-5,6-dihydro-1,5-naphthyridine-2,7-dicarbonitrile]	3100				IC50 (DGKα; [11]): 2200 nM; EC50 [1, 12]: 20000 nM
C[C@@H]1CN(c2c(C#N)c(=O)n(C)c3ccc(C#N)nc23)CC[C@@H]1Oc1ccc(C(F)(F)F)cc1 [Example 191, 5-methyl-8-((3R,4S)-3-methyl-4-(4-(trifluoromethyl)phenoxy)piperidin-1-yl)-6-oxo-5,6-dihydro-1,5-naphthyridine-2,7-dicarbonitrile]	8600				IC50 (DGKα; [11]): 1800 nM; EC50 [1, 12]: 20000 nM

Source: patent US11964973B2 (priority 2019, dated 2024)
